Laboratory results as given in patent publication US11857601B2, “Pharmaceutical composition for cancer treatment comprising fusion protein including IL-2 protein and CD80 protein and anticancer drug” (GI INNOVATION, INC., priority 2020, dated 2024).

Columns and labels:
Human CTLA-4 = molecular target: T1, Human CTLA-4 (Homo sapiens, UniProt P16410); assay: Binding ability to CTLA-4 (Octet RED 384)
T1 construct: purchased Sino Biological 11159-H08H
Procedure: In order to identify the binding affinity between the fusion protein and its ligand, the binding affinity was measured using Octet RED 384.
AR2G biosensor (Amine Reactive 2nd gen, ForteBio, Cat: 18-5092) was previously hydrated with 200 μl of distilled water in a 96-well microplate (GreinerBio-one, Cat: 655209). A ligand (CTLA-4, Human CTLA-4/CD152, His tag, Sino Biological, Cat: 11159-H08H) to be attached to the AR2G biosensor was diluted with 10 mM acetate buffer (pH 5, AR2G reagent Kit, ForteBio, Cat: 18-5095) to a concentration of 5 μg/ml. […] Activation buffer was prepared by mixing 20 mM EDC and 10 mM s-NHS (AR2G reagent Kit, ForteBio, Cat: 18-5095) in distilled water. 80 μl of each reagent was placed in a 384-well microplate (GreinerBio-one, Cat: 781209) and the program was set up.
Binding kinetics measurements were performed using the Octet RED 384 instrument (ForteBio, Pall Life Science) with agitation at 30° C. and 1,000 rpm. The binding ability for CTLA-4 was measured using the Amine Reactive 2 generation (AR2G) biosensor chip, and the binding ability for PD-L1 was measured using the Nickel charged Tris-NTA (Ni-NTA) biosensor chip. The AR2G biosensor chip was activated with a combination of 400 mM EDC and 100 mM sulfo-NHS. […]

human PBMCs = assay: IFN-γ production in PHA-treated CFSE-labeled PBMCs (ELISA); format: cell-based; details: PBMCs + PHA 5 μg/ml; 1, 10 or 100 nM; 6 days; compared with GI101C1, GI101C2 or IL-2
Procedure: Peripheral blood mononuclear cells (PBMCs) isolated from a human were labeled with carboxyfluorescein succinimidyl ester (CFSE) by being reacted with 1 μM CellTrace CFSE dye at 37° C. for 20 minutes. CFSE not bound to the cells was removed by being reacted for 5 minutes with a culture medium having a 5-fold volume of the staining reaction solution and then by being centrifuged at 1,300 rpm for 5 minutes. […]
The cells were analyzed by FACS, and human IFN-γ present in the culture medium was measured using an ELISA kit (Biolegend, San Diego, CA, USA, cat No. 430103).
The amount of human IFN-γ secreted into the supernatant of each sample in which the cells had been cultured was measured using a human IFN-γ ELISA kit (Biolegend, cat No. 430103). […]
After the reaction was completed, the plate was washed and secondary antibodies (detection antibodies) were added thereto. […] Finally, […] was added thereto to stop the color development reaction, and the absorbance at 450 nm was measured with Epoch Microplate Spectrophotometer (BioTek instruments, Winooski, VT, USA), and the concentration was calculated.

BT-474 cells = assay: mGI-101 and Herceptin in BT-474 xenotransplanted tumor model; format: in vivo, human
Source text: BT-474 cells were purchased from ATCC (USA) and cultured in RPMI1640 medium (Welgene) containing 10% FBS (Gibco) and 1% antibiotic/antifungal agent (Gibco).
In order to establish a xenotransplanted tumor model for BT-474 cells, it was subcutaneously injected into the left flank of BALB/c nu/nu female mice (7-week-old) by pulling the leather skin of the mice to make a space using a pellet transplant trochar (MP-182, Innovative Research of America, USA) so that it was located under the skin of the left flank.
A certain period of time after cell inoculation of the tumor grafts of the mice, the tumor volume was measured for animals with no abnormalities in the health condition of the animals, and the subjects were selected so that the average of each group reached less than 60-120 mm^3, and the selected animals were assigned as evenly as possible based on tumor volume and body weight, each group including 10 animals.
Clinical symptoms such as a disease and a behavioral change were observed once a day during the test period, and deceased animals were identified, and the mice were sacrificed when the tumor size reached a size of 4,000 mm^3.
The tumor volume before administration of each subject was set as the value measured at the time of grouping.
All statistical calculations were performed using Prism 8.0 (Graph Pad Software Inc, USA). The comparison of tumor volume measurements was made through two-way analysis of variance followed by Tukey's multiple comparison test. A p value of less than 0.05 was considered significant.

[1] = BT-474, end of the test, 10 animals per group

T1 sequence (P16410 36-223): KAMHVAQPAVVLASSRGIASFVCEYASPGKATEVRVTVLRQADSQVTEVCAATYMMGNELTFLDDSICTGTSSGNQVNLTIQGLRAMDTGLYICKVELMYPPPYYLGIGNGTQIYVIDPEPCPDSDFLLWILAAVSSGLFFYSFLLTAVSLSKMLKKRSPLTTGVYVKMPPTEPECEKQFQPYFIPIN

binding ability for CTLA-4 (Human CTLA-4) | Substance | IFN-γ secretion (human PBMCs) | number of mice with tumor growth inhibition rate of 30% or more (BT-474 cells; [1]) [mice] | number of mice with tumor growth inhibition rate of 50% or more (BT-474 cells; [1]) [mice] | number of mice with tumor growth inhibition rate of 80% or more (BT-474 cells; [1]) | tumor size compared with the vehicle control (BT-474 cells; mGI-101 3 mg/kg i.v. QW: day 28, Herceptin 1 mg/kg i.p. QW: day 14, 18, 21, combination: day 14 to day 28)
high binding ability | GI101: fusion protein: human CD80 fragment, Ig hinge, Fc domain, linker, IL-2 variant (2M) (R38A, F42A); SEQ ID NO: 9 | remarkable increase | – | – | – | –
– | mGI101: fusion protein: mouse CD80, Ig hinge, Fc domain, linker, IL-2 variant (2M) (R38A, F42A); SEQ ID NO: 15 | – | 5 | 1 | no mouse | statistically significant reduction in tumor size
